Experimental data: US11345957B2, “Methods of treating glioblastoma in a subject informed by exosomal RNA signatures” (Exosome Diagnostics, Inc., priority 2017, dated 2022)

System: patients diagnosed with glioblastoma mutliforme (GBM)
Test: Response of GBM patients to Dacomitinib treatment
Type: in vivo, human
Excerpt: Serum samples were collected from 14 patients diagnosed with glioblastoma mutliforme (GBM) before the administration of Dacomitinib (pre-treatment samples) and 1 month after the initiation of Dacomitinib treatment (post-treatment samples). Of the 14 patients, 7 were deemed to be “responders” to the drug and stayed on the drug for more than 6 months.

For `COc1cc2ncnc(Nc3ccc(F)c(Cl)c3)c2cc1NC(=O)/C=C/CN1CCCCC1` [Dacomitinib], the “time responders stayed on the drug” value (7 responders of 14 GBM patients) was “more than 6 months” and the “patients deemed to be "responders" to the drug” value (of the 14 patients diagnosed with GBM) was 7.
